Columns and labels:
[1] = system: cockroaches Blattella germanica; test: Referential Test Example: spray test on hidden cockroaches, mortality rate; assay type: in vivo; conditions: 4.2 mL test formulation solution (ingredient concentrations % (w/v) per Table 2, in diethylene glycol monomethylether) sprayed in 70 cm cubic glass box; 10 cockroaches; transferred after 10 minutes; counted after 3 days; average of duplicate
Text: Suitable amounts of the compound A and either (E)-N^1-[(6-chloro-3-pyridyl)methyl]-N^2-cyano-N^1-methylacetamidine (general name: acetamiprid, hereinafter, referred to as N-cyanoacetamidine compound) or 1-(6-chloro-3-pyridylmethyl)-N-nitroimidazolidin-2-ylidene amine (general name: imidacloprid, hereinafter referred to as nitroimidazoline compound) are mixed with diethylene glycol monomethylether, to give test formulation solutions containing the compound A and either the N-cyano acetamidine or nitroimidazoline compound at particular concentrations (see Table 2).
(§1) A triangular prism wooden container (regular triangle having a base of 3.5 cm and a height of 15 cm) containing 10 cockroaches Blattella germanica (5 males and 5 females) hidden therein was placed in the bottom center of a cubic glass box having a base of 70 cm. 4.2 Milliliters of the test formulation solution was sprayed on the glass box with a spray gun. In 10 minutes after the spraying, the cockroaches were transferred into a plastic container containing food and water and left there for 3 days. The number of live cockroaches was then counted, to give a mortality rate.

[2] = system: cockroaches Blattella germanica; test: Test Example: spray test on hidden cockroaches, mortality rate; assay type: in vivo; conditions: 4.2 mL test formulation solution (ingredient concentrations % (W/V) per Table 1, in diethylene glycol monomethylether) sprayed in 70 cm cubic glass box; 10 cockroaches; transferred after 10 minutes; counted after 3 days; average of duplicate
Text: Suitable amounts of 4-methoxymethyl-2,3,5,6-tetrafluorobenzyl(1R)-trans-3-(2-cyano-1-propenyl)-2,2-dimethylcyclopropanecarboxylate (isomer ratio, based on double bond, Z/E: approximately 2/1) (hereinafter, referred to as compound A) and/or clothianidin (manufactured by Sumika Takeda Agrochemicals Co.) are mixed with diethylene glycol monomethylether, to give a test formulation solution containing the compound A and/or clothianidin at particular concentrations (see Table 1).
as §1, with “cm square.” for “cm.”

Structure (SMILES) | Mortality rate (%) [1] [%] | Mortality rate (%) [2] [%]
COCc1c(F)c(F)c(COC(=O)[C@@H]2[C@@H](C=C(C)C#N)C2(C)C)c(F)c1F [compound 7, 4-methoxymethyl-2,3,5,6-tetrafluorobenzyl(1R)-trans-3-(2-cyano-1-propenyl)-2,2-dimethylcyclopropanecarboxylate] | 5 | 5
CN/C(=N\[N+](=O)[O-])NCc1cnc(Cl)s1 [compound 8, 1-(2-chloro-1,3-thiazolyl)methyl-3-methyl-2-nitroguanidine] | – | 35
C/C(=N\C#N)N(C)Cc1ccc(Cl)nc1 [compound 12, (E)-N^1-[(6-chloro-3-pyridyl)methyl]-N^2-cyano-N^1-methylacetamidine] | 5 | –
O=[N+]([O-])NC1=NCCN1Cc1ccc(Cl)nc1 [compound 13, 1-(6-chloro-3-pyridylmethyl)-N-nitroimidazolidin-2-ylidene amine] | 15 | –
